Laboratory results: PubChem BioAssay (NCI)
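Grown in 96-well plates, cells were treated for 48 hours with each compound at five concentrations. Insufficient inhibition: endpoint recorded as highest concentration tested. At the GI50, growth is halved. At the TGI there is no net growth.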

Tests used:
Experiment in all cases: DTP human tumour cell line panel, 48 h
LOX IMVI melanoma = system: LOX IMVI melanoma
SNB-75 CNS = system: SNB-75 CNS
SNB-19 CNS = system: SNB-19 CNS
SF-539 CNS = system: SF-539 CNS
OVCAR-8 ovarian = system: OVCAR-8 ovarian
SF-295 CNS = system: SF-295 CNS
CCRF-CEM leukemia = system: CCRF-CEM leukemia
HCT-116 colon = system: HCT-116 colon
HL-60(TB) leukemia = system: HL-60(TB) leukemia
UO-31 renal = system: UO-31 renal
BT-549 breast = system: BT-549 breast
SK-OV-3 ovarian = system: SK-OV-3 ovarian
NCI-H226 lung = system: NCI-H226 lung
U251 CNS = system: U251 CNS
OVCAR-3 ovarian = system: OVCAR-3 ovarian
RXF 393 renal = system: RXF 393 renal
KM12 colon = system: KM12 colon
HCC-2998 colon = system: HCC-2998 colon
SK-MEL-2 melanoma = system: SK-MEL-2 melanoma
HT29 colon = system: HT29 colon
PC-3 prostate = system: PC-3 prostate
OVCAR-5 ovarian = system: OVCAR-5 ovarian
CAKI-1 renal = system: CAKI-1 renal
HOP-62 NSCLC = system: HOP-62 NSCLC
MOLT-4 leukemia = system: MOLT-4 leukemia
SW-620 colon = system: SW-620 colon
IGROV1 ovarian = system: IGROV1 ovarian
MCF7 breast = system: MCF7 breast
UACC-257 melanoma = system: UACC-257 melanoma
M14 melanoma = system: M14 melanoma
HS 578T breast = system: HS 578T breast
RPMI-8226 leukemia = system: RPMI-8226 leukemia
SK-MEL-28 melanoma = system: SK-MEL-28 melanoma
SF-268 CNS = system: SF-268 CNS
COLO 205 colon = system: COLO 205 colon
TK-10 renal = system: TK-10 renal
T-47D breast = system: T-47D breast
MDA-MB-435 = system: MDA-MB-435
MDA-MB-231 breast = system: MDA-MB-231 breast
ACHN renal = system: ACHN renal
SN12C renal = system: SN12C renal
HCT-15 colon = system: HCT-15 colon
EKVX NSCLC = system: EKVX NSCLC
SR leukemia = system: SR leukemia
K-562 leukemia = system: K-562 leukemia
NCI-H23 lung = system: NCI-H23 lung
MALME-3M melanoma = system: MALME-3M melanoma
DU-145 prostate = system: DU-145 prostate
NCI-H460 lung = system: NCI-H460 lung
A498 renal = system: A498 renal
SK-MEL-5 melanoma = system: SK-MEL-5 melanoma
OVCAR-4 ovarian = system: OVCAR-4 ovarian
A549 NSCLC = system: A549 NSCLC
786-0 renal = system: 786-0 renal
HOP-92 NSCLC = system: HOP-92 NSCLC
NCI/ADR-RES ovarian = system: NCI/ADR-RES ovarian
UACC-62 melanoma = system: UACC-62 melanoma

## CCN(CC)CCn1c2ccc(O)cc2c2sc3cc(OC)ccc3c(=O)c21
LOX IMVI melanoma
  GI50: 1.21 µM
  TGI: 2.59 µM
SNB-75 CNS
  GI50: 2.39 µM
  TGI: 17.4 µM
SNB-19 CNS
  GI50: 1.51 µM
  TGI: 3.41 µM
SF-539 CNS
  GI50: 1.76 µM
  TGI: 3.2 µM
OVCAR-8 ovarian
  GI50: 2.1 µM
  TGI: 7.26 µM
SF-295 CNS
  GI50: 5.35 µM
  TGI: 18.8 µM
CCRF-CEM leukemia
  GI50: 1.09 µM
  TGI: 4.5 µM
HCT-116 colon
  GI50: 1.07 µM
  TGI: 2.38 µM
HL-60(TB) leukemia
  GI50: 1.72 µM
  TGI: 3.55 µM
UO-31 renal
  GI50: 1.9 µM
  TGI: 11.5 µM
BT-549 breast
  GI50: 6.09 µM
  TGI: 19.9 µM
SK-OV-3 ovarian
  GI50: 13.4 µM
  TGI: 27.2 µM
NCI-H226 lung
  GI50: 10.4 µM
  TGI: 24.2 µM
U251 CNS
  GI50: 1.58 µM
  TGI: 3.34 µM
OVCAR-3 ovarian
  GI50: 2.19 µM
  TGI: 4.88 µM
RXF 393 renal
  GI50: 1.3 µM
  TGI: 2.68 µM
KM12 colon
  GI50: 1.84 µM
  TGI: 3.72 µM
HCC-2998 colon
  GI50: 1.47 µM
  TGI: 2.91 µM
SK-MEL-2 melanoma
  GI50: 9.15 µM
  TGI: 25.1 µM
HT29 colon
  GI50: 1.75 µM
  TGI: 4.29 µM
PC-3 prostate
  GI50: 1.82 µM
  TGI: 5.09 µM
OVCAR-5 ovarian
  GI50: 2.22 µM
  TGI: 4.68 µM
CAKI-1 renal
  GI50: 3.73 µM
  TGI: 17 µM
HOP-62 NSCLC
  GI50: 6.03 µM
  TGI: 23.7 µM
MOLT-4 leukemia
  GI50: 0.389 µM
  TGI: 1.71 µM
SW-620 colon
  GI50: 0.675 µM
  TGI: 2.11 µM
IGROV1 ovarian
  GI50: 1.59 µM
  TGI: 4.52 µM
MCF7 breast
  GI50: 1.18 µM
  TGI: 2.79 µM
UACC-257 melanoma
  GI50: 2.1 µM
  TGI: 4.68 µM
M14 melanoma
  GI50: 1.64 µM
  TGI: 3.31 µM
HS 578T breast
  GI50: 1.95 µM
  TGI: 4.59 µM
RPMI-8226 leukemia
  GI50: 1.95 µM
  TGI: 4.88 µM
SK-MEL-28 melanoma
  GI50: 1.8 µM
  TGI: 3.29 µM
SF-268 CNS
  GI50: 7.34 µM
  TGI: 24.5 µM
COLO 205 colon
  GI50: 3.08 µM
  TGI: 17.9 µM
TK-10 renal
  GI50: 9.04 µM
  TGI: 24.7 µM
T-47D breast
  GI50: 14.2 µM
  TGI: 37.9 µM
MDA-MB-435
  GI50: 1.64 µM
  TGI: 3.1 µM
MDA-MB-231 breast
  GI50: 1.61 µM
  TGI: 3.71 µM
ACHN renal
  GI50: 1.13 µM
  TGI: 2.44 µM
SN12C renal
  GI50: 5.83 µM
  TGI: 21.2 µM
HCT-15 colon
  GI50: 1.2 µM
  TGI: 3.28 µM
EKVX NSCLC
  GI50: 1.67 µM
  TGI: 3.5 µM
SR leukemia
  GI50: 1.11 µM
  TGI: 3.15 µM
K-562 leukemia
  GI50: 1.24 µM
  TGI: 2.81 µM
NCI-H23 lung
  GI50: 1.56 µM
  TGI: 3.18 µM
MALME-3M melanoma
  GI50: 1.87 µM
  TGI: 4.01 µM
DU-145 prostate
  GI50: 1.71 µM
  TGI: 3.51 µM
NCI-H460 lung
  GI50: 1.22 µM
  TGI: 2.66 µM
A498 renal
  GI50: 3.08 µM
  TGI: 16.5 µM
SK-MEL-5 melanoma
  GI50: 1.74 µM
  TGI: 3.14 µM
OVCAR-4 ovarian
  GI50: 1.81 µM
  TGI: 4.04 µM
A549 NSCLC
  GI50: 1.63 µM
  TGI: 4.3 µM
786-0 renal
  GI50: 1.39 µM
  TGI: 2.79 µM
HOP-92 NSCLC
  GI50: 2.58 µM
  TGI: 17 µM
NCI/ADR-RES ovarian
  GI50: 1.23 µM
  TGI: 4.01 µM
UACC-62 melanoma
  GI50: 1.89 µM
  TGI: 4.26 µM
